Drawing on US7405240B2, “Substituted cyclopentanes or cyclopentanones as therapeutic agents” (Allergan, Inc., priority 2006, dated 2008), this text covers EC50 and Ki for 13 molecules.

In experiment [1] the target is T1, hEP2 (Homo sapiens, UniProt P43116). The experiment can be described thus: cAMP assay, hEP2. In kind it is cell-based. (Changes in cAMP serve as a functional read-out for many G protein-coupled receptors.)
The target in experiment [2] is T1, hEP2. The experiment can be described thus: Competition binding, [3H]PGE2, human EP2 receptors. On the set-up: expressed in transfected cells; host or cells: HEK 293. Particulars: [3H]PGE2, HEK 293 cells stably expressing human EP2; read-out: hEP2 Ki. How it is done:
Competition binding experiments were performed in a medium containing Hank's balanced salt solution, Hepes 20 mM, pH 7.3, membranes (˜60 μg protein) or 2×10^5 cells from HEK 293 cells stably expressing human EP2 receptors, [^3H]PGE2 (10 nM) and various concentrations of test compounds in a total volume of 300 μl. Reaction mixtures were incubated at 23° C. for 60 min, and were filtered over Whatman GF/B filters under vacuum. Filters were washed three times with 5 ml ice-cold buffer containing 50 mM Tris/HCl (pH 7.3). Non-specific binding was estimated in the presence of excess unlabeled PGE2 (10 μM). Binding data fitted to the binding model for a single class of binding sites, using nonlinear regression analysis. IC50 values thus obtained were converted to Ki using the equation of Ki=(IC50/(1+[L]/KD) where [L] represents PGE2 concentration (10 nM) and KD the dissociation constant for [^3H]PGE2 at human EP2 receptors (40 nM).
(§1) HEK-293 cells stably expressing the human or feline FP receptor, or EP1, EP2, or EP4 receptors were washed with TME buffer, scraped from the bottom of the flasks, and homogenized for 30 sec using a Brinkman PT 10/35 polytron. TME buffer was added to achieve a final 40 ml volume in the centrifuge tubes (the composition of TME is 100 mM TRIS base, 20 mM MgCl2, […]; 10N HCl is added to achieve a pH of 7.4).
(§2) The cell homogenate was centrifuged at 19000 r.p.m. for 20 min at 4° C. using a Beckman Ti-60 rotor. The resultant pellet was resuspended in TME buffer to give a final 1 mg/ml protein concentration, as determined by Biorad assay. Radioligand binding competition assays vs. [3H-] 17-phenyl PGF2, (5 nM) were performed in a 100 μl volume for 60 min. Binding reactions were started by adding plasma membrane fraction. The reaction was terminated by the addition of 4 ml ice-cold TRIS-HCl buffer and rapid filtration through glass fiber GF/B filters using a Brandel cell harvester. The filters were washed 3 times with ice-cold buffer and oven dried for one hour.
(§3) [^3H-] PGE2 (specific activity 180 Ci mmol) was used as the radioligand for EP receptors. [^3H] 17-phenyl PGF2, was employed for FP receptor binding studies. Binding studies employing EP1, EP2, EP4 and FP receptors were performed in duplicate in at least three separate experiments. A […] assay volume was used. Incubations were for 60 min at 25° C. and were terminated by the addition of 4 ml of ice-cold 50 mM TRIS-HCl, followed by rapid filtration through Whatman GF/B filters and three additional 4 ml washes in a cell harvester (Brandel). Competition studies were performed using a final concentration of 5 nM [^3H]-PGE2, or 5 nM [^3H] 17-phenyl PGF2, and non-specific binding determined with 10^−5M of unlabeled PGE2, or 17-phenyl PGF2α, according to receptor subtype studied.

Experiment [3] has as its target hEP4 (Homo sapiens, UniProt P35408). The experiment can be described thus: Radioligand binding, EP4 receptor. On the set-up: expressed in transfected cells; host or cells: HEK-293. The following applies: [3H]PGE2, HEK-293 cells expressing EP4. As for the experimental part:
as §1, §2, §3

Experiment [4] concerns the target T1, hEP2. Nature of the experiment: FLIPR calcium signal, hEP2. In kind it is cell-based. On the set-up: expressed in transfected cells; host or cells: HEK-293(EBNA). Particulars: HEK-293(EBNA) cells expressing hEP2/Gqs5. How it is done: Methods for FLIPR™ Studies
HEK-293(EBNA) cells, stably expressing one type or subtype of recombinant human prostaglandin receptors (prostaglandin receptors expressed: hDP/Gqs5; hEP1; hEP2/Gqs5; hEP3A/Gqi5; hEP4/Gqs5; hFP; hIP; hTP), were cultured in 100 mm culture dishes in high-glucose DMEM medium containing 10% fetal bovine serum, 2 mM 1-glutamine, 250 μg/ml geneticin (G418) and 200 μg/ml hygromycin B as selection markers, and 100 units/ml penicillin G, 100 μg/ml streptomycin and 0.25 μg/ml amphotericin B.
Cells were seeded at a density of 5×10^4 cells per well in Biocoat® Poly-D-lysine-coated black-wall, clear-bottom 96-well plates (Becton-Dickinson) and allowed to attach overnight in an incubator at 37° C. Cells were then washed two times with HBSS-HEPES buffer (Hanks Balanced Salt Solution without bicarbonate and phenol red, 20 mM HEPES, pH 7.4) using a Denley Cellwash plate washer (Labsystems). After 45 minutes of dye-loading in the dark, using the calcium-sensitive dye Fluo-4 AM at a final concentration of 2 μM, plates were washed four times with HBSS-HEPES buffer to remove excess dye leaving 100 μl in each well. Plates were re-equilibrated to 37° C. for a few minutes.
Cells were excited with an Argon laser at 488 nm, and emission was measured through a 510-570 nm bandwidth emission filter (FLIPR™, Molecular Devices, Sunnyvale, Calif.). Drug solution was added in a 50 μl volume to each well to give the desired final concentration. The peak increase in fluorescence intensity was recorded for each well. On each plate, four wells each served as negative (HBSS-HEPES buffer) and positive controls (standard agonists: BW245C (hDP); PGE2 (hEP1; hEP2/Gqs5; hEP3A/Gqi5; hEP4/Gqs5); PGF2α (hFP); carbacyclin (hIP); U-46619 (hTP), depending on receptor). The peak fluorescence change in each drug-containing well was then expressed relative to the controls.
Compounds were tested in a high-throughput (HTS) or concentration-response (CoRe) format. In the HTS format, forty-four compounds per plate were examined in duplicates at a concentration of 10^−5 M. To generate concentration-response curves, four compounds per plate were tested in duplicates in a concentration range between 10^−5 and 10^−11 M. The duplicate values were averaged. In either, HTS or CoRe format each compound was tested on at least 3 separate plates using cells from different passages to give an n≧3.

Molecules are shown by their SMILES.

hEP4, sequence (P35408 whole entry): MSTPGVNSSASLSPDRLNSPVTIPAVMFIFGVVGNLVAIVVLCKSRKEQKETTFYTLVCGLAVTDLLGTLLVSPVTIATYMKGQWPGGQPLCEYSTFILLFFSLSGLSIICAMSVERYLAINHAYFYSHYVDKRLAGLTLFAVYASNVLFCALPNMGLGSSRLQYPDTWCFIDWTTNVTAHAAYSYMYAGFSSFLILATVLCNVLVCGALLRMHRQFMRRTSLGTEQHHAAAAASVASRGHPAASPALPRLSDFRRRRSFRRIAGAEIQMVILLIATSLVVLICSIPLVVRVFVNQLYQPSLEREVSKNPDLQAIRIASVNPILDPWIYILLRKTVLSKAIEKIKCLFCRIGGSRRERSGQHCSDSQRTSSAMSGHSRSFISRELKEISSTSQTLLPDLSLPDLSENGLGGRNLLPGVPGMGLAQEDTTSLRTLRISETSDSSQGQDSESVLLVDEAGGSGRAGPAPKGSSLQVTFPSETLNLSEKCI
T1 sequence (P43116 whole entry): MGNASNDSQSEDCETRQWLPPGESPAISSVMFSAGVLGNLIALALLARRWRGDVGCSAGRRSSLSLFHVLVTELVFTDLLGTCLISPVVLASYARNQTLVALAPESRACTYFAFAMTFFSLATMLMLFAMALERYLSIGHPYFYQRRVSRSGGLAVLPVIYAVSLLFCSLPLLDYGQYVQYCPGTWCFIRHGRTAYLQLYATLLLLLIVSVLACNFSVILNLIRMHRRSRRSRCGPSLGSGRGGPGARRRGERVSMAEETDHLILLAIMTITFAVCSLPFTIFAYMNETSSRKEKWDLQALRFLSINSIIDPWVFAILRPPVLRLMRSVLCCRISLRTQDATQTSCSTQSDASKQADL

As for `O=C(O)CCC/C=C\C[C@@H]1[C@@H](COc2cccc(C(O)Cc3ccccc3)c2)[C@H](O)C[C@H]1Cl` (stereo partly drawn) [Example 53, (Z)-7-{(1R,2S,3R,5R)-5-Chloro-3-hydroxy-2-[3-(1-hydroxy-2-phenyl-ethyl)-phenoxymethyl]-cyclopentyl}-hept-5-enoic acid], the EC50 (usually the concentration needed to bring the measured effect to its halfway point) in experiment [1] amounted to 496 nM; in experiment [4] it was 1730 nM. Moreover, the Ki (usually the dissociation constant of the complex between target and ligand, obtained from inhibition or displacement) in experiment [2] was 1750 nM; in experiment [3] it was 1850 nM.
With `CC(O)c1cccc(OC[C@@H]2[C@@H](C/C=C\CCCC(=O)O)[C@H](Cl)C[C@H]2O)c1` (stereo partly drawn) [Example 54, (Z)-7-{(1R,2S,3R,5R)-5-Chloro-3-hydroxy-2-[3-(1-hydroxy-ethyl)-phenoxymethyl]-cyclopentyl}-hept-5-enoic acid], the EC50 in experiment [1] came to 40 nM; in experiment [4], 121 nM. The Ki in experiment [2] was 701 nM; in experiment [3] it was more than 10000 nM.
On to `O=Cc1ccc(OC[C@@H]2[C@@H](C/C=C\CCCC(=O)O)[C@H](Cl)C[C@H]2O)cc1` [Example 42, (Z)-7-[(1R,2S,3R,5R)-5-Chloro-2-(4-formyl-phenoxymethyl)-3-hydroxy-cyclopentyl]-hept-5-enoic acid], for which the EC50 in experiment [1] was 18 nM; in experiment [4], more than 10000 nM. Besides, the inhibition constant Ki in experiment [2] was 1500 nM; in experiment [3] it was more than 10000 nM.
Turning to `O=C(O)CCC/C=C\C[C@@H]1[C@@H](COc2cccc3c2CCC3=O)[C@H](O)C[C@H]1Cl` [Example 58, (Z)-7-[(1R,2S,3R,5R)-5-Chloro-3-hydroxy-2-(1-oxo-indan-4-yloxymethyl)-cyclopentyl]-hept-5-enoic acid], the EC50 in experiment [1] came out at 6.5 nM; in experiment [4] it was 51 nM. Also, the Ki in experiment [2] came to 129 nM; in experiment [3], 2830 nM.
Taken in the same sequence, the figures for `CC(C)C(O)c1cccc(OC[C@@H]2[C@@H](C/C=C\CCCC(=O)O)[C@H](Cl)C[C@H]2O)c1` (stereo partly drawn) [Example 51, (Z)-7-{(1R,2S,3R,5R)-5-Chloro-3-hydroxy-2-[3-(1-hydroxy-2-methyl-propyl)-phenoxymethyl]-cyclopentyl}-hept-5-enoic acid] were 39 nM, 196 nM, 772 nM and more than 10000 nM.
For `CC(O)c1ccc(OC[C@@H]2[C@@H](C/C=C\CCCC(=O)O)[C@H](Cl)C[C@H]2O)cc1` (stereo partly drawn) [Example 47, (Z)-7-{(1R,2S,3R,5R)-5-Chloro-3-hydroxy-2-[4-(1-hydroxy-ethyl)-phenoxymethyl]-cyclopentyl}-hept-5-enoic acid] the same measures were 124 nM, 1940 nM, 5290 nM and more than 10000 nM.
Take `O=C(O)CCC/C=C\C[C@@H]1[C@@H](COc2cccc(CO)c2)[C@H](O)C[C@H]1Cl` [Example 49, (Z)-7-[(1R,2S,3R,5R)-5-Chloro-3-hydroxy-2-(3-hydroxymethyl-phenoxymethyl)-cyclopentyl]-hept-5-enoic acid]: the concentration giving a half-maximal response (EC50) in experiment [1] came out at 14 nM; in experiment [4] it was 374 nM. For the same molecule, the inhibition constant (Ki) is 207 nM in experiment [2] and more than 10000 nM in experiment [3].
Regarding `CCCCCC(O)c1cccc(OC[C@@H]2[C@@H](C/C=C\CCCC(=O)O)[C@H](Cl)C[C@H]2O)c1` (stereo partly drawn) [Example 50, (Z)-7-{(1R,2S,3R,5R)-5-Chloro-3-hydroxy-2-[3-(1-hydroxy-hexyl)-phenoxymethyl]-cyclopentyl}-hept-5-enoic acid], the EC50 in experiment [1] was determined as 68 nM; in experiment [4] it was 463 nM. Further, the Ki came out at 826 nM in experiment [2] and 1130 nM in experiment [3].
In the case of `CC(C)(c1ccccc1)c1ccc(OC[C@@H]2[C@@H](C/C=C\CCCC(=O)O)[C@H](Cl)C[C@H]2O)cc1` [Example 31, (Z)-7-{(1R,2S,3R,5R)-5-Chloro-3-hydroxy-2-[4-(1-methyl-1-phenyl-ethyl)-phenoxymethyl]-cyclopentyl}-hept-5-enoic acid], the inhibitory constant (Ki) is more than 10000 nM in experiment [2] and 1740 nM in experiment [3]. For the same molecule, the EC50 in experiment [4] was more than 10000 nM.
`CCCC(O)c1ccc(OC[C@@H]2[C@@H](C/C=C\CCCC(=O)O)[C@H](Cl)C[C@H]2O)cc1` (stereo partly drawn) [Example 44, (Z)-7-{(1R,2S,3R,5R)-5-Chloro-3-hydroxy-2-[4-(1-hydroxy-butyl)-phenoxymethyl]-cyclopentyl}-hept-5-enoic acid]: the EC50 in experiment [1] turned out to be 66 nM; in experiment [4], 1100 nM. The Ki in experiment [2] is 2730 nM; in experiment [3], more than 10000 nM.
Taken in the same sequence, the figures for `CCCC(OC)c1ccc(OC[C@@H]2[C@@H](C/C=C\CCCC(=O)O)[C@H](Cl)C[C@H]2O)cc1` (stereo partly drawn) [Example 45, (Z)-7-{(1R,2S,3R,5R)-5-Chloro-3-hydroxy-2-[4-(1-methoxy-butyl)-phenoxymethyl]-cyclopentyl}-hept-5-enoic acid] were 47 nM, 661 nM, 904 nM and 5280 nM.
For `O=C(O)CCC/C=C\C[C@@H]1[C@@H](COc2cccc3c2CCC3O)[C@H](O)C[C@H]1Cl` (stereo partly drawn) [Example 59, (Z)-7-[(1R,2S,3R,5R)-5-Chloro-3-hydroxy-2-(1-hydroxy-indan-4-yloxymethyl)-cyclopentyl]-hept-5-enoic acid] the same measures were 1.2 nM, 108 nM, 139 nM and 3000 nM.
Taken in the same sequence, the figures for `COCc1c(C)cc(OC[C@@H]2[C@@H](C/C=C\CCCC(=O)O)[C@H](Cl)C[C@H]2O)cc1C` [Example 57, (Z)-7-[(1R,2S,3R,5R)-5-Chloro-3-hydroxy-2-(4-methoxymethyl-3,5-dimethyl-phenoxymethyl)-cyclopentyl]-hept-5-enoic acid] were 23 nM, 142 nM, 195 nM and 1660 nM.
